According to patent US20220370440A1 (Lead Discovery Center GmbH, priority 2018, published 2022):

Legend:
H1975 = H1975 CellTiter-Glo; type: cell-based; conditions: Homo sapiens, NCI-H1975; 72 h compound incubation; read-out: H1975 CTG IC50
Outline: (§1)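 ATP-based luminescent viability read after 72 h compound exposure (DMSO vehicle, range of concentrations), cells plated 24 h beforehand at 37° C, 5% CO2. IC50 by dose-response fitting; 10 μM Staurosporine and DMSO controls, Z′-factor ≥0.5 required.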

[1] = Metabolic stability in mouse liver microsomes without cofactor NADPH; type: in vitro ADME; conditions: 3 μM test compound, mouse liver microsomes, without NADPH, 50 min, 37° C., LC-MS/MS
Outline: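 Cofactor-free incubation: no NADPH added to mouse liver microsomes, with compound at 3 μM and 37° C. Remaining parent was quantified by LC-MS/MS at time points up to 50 minutes to track depletion.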

[2] = molecular target: Her2 Exon 20 INSYVMA Ba/F3 (Homo sapiens, UniProt P04626, DUP772-775, cells depend on it); assay: Her2 Exon 20 INSYVMA Ba/F3 CellTiter-Glo; type: cell-based; conditions: CellTiter-Glo, 72 h, read-out: Her2 Exon 20 INSYVMA Ba/F3 CTG IC50
Outline: (§2)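 Seed Ba/F3 cells; 24 h, 37 °C/5% CO2. Add cpds in DMSO, multiple concs; 72 h. CellTiter-Glo, 10 min RT, luminescence. IC50 by curve fit. Z′ ≥0.5 from DMSO vs 10 μM staurosporine.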

[3] = molecular target: EGFR Exon 20 INSNPH Ba/F3 (Homo sapiens, UniProt P00533, DUP771-773, cells depend on it); assay: EGFR Exon 20 INSNPH Ba/F3 CellTiter-Glo; type: cell-based; conditions: CellTiter-Glo, 72 h, read-out: EGFR Exon 20 INSNPH Ba/F3 CTG IC50
Chain of EGFR Exon 20 INSNPH Ba/F3 (P00533 with tags, fused parts or gaps DUP771-773): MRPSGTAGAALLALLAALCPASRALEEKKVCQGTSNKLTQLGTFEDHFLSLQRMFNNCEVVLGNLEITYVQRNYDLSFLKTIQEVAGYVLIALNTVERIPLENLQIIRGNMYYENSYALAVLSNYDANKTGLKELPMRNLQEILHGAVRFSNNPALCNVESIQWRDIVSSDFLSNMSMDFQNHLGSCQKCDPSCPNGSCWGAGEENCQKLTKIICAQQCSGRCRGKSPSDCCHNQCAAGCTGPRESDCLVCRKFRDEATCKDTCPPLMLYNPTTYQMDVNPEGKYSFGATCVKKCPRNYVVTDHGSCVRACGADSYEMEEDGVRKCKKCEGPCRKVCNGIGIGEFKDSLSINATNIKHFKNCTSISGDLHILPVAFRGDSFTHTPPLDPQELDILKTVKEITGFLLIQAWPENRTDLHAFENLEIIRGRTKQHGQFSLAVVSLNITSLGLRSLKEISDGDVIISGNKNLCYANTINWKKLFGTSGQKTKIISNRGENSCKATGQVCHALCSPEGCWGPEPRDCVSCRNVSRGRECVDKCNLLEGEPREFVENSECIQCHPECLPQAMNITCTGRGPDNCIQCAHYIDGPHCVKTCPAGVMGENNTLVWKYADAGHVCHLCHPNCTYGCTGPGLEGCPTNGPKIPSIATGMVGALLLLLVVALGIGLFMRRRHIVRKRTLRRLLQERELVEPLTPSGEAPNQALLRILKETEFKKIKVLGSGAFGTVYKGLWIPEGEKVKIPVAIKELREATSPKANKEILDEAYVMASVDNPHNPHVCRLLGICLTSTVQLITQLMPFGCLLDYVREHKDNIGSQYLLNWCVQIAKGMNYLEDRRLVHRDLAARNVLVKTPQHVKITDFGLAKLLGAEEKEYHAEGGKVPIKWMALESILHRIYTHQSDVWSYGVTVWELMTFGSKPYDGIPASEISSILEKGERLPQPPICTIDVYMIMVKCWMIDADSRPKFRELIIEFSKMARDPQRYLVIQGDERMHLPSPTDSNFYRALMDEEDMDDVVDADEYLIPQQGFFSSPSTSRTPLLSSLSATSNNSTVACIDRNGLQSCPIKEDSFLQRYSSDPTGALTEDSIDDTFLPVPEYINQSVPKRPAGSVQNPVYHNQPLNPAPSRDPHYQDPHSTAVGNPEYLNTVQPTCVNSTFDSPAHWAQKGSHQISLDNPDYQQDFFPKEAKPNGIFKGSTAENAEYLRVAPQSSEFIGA
Outline: as §2

A431 = A431 CellTiter-Glo; type: cell-based; conditions: Homo sapiens, A-431; 72 h compound incubation; read-out: A431 CTG IC50
Outline: as §1

EGFR wt = EGFR wt (Homo sapiens, UniProt P00533); assay: EGFR wt Lance assay; type: biochemical
Chain of EGFR wt (P00533 25-1210): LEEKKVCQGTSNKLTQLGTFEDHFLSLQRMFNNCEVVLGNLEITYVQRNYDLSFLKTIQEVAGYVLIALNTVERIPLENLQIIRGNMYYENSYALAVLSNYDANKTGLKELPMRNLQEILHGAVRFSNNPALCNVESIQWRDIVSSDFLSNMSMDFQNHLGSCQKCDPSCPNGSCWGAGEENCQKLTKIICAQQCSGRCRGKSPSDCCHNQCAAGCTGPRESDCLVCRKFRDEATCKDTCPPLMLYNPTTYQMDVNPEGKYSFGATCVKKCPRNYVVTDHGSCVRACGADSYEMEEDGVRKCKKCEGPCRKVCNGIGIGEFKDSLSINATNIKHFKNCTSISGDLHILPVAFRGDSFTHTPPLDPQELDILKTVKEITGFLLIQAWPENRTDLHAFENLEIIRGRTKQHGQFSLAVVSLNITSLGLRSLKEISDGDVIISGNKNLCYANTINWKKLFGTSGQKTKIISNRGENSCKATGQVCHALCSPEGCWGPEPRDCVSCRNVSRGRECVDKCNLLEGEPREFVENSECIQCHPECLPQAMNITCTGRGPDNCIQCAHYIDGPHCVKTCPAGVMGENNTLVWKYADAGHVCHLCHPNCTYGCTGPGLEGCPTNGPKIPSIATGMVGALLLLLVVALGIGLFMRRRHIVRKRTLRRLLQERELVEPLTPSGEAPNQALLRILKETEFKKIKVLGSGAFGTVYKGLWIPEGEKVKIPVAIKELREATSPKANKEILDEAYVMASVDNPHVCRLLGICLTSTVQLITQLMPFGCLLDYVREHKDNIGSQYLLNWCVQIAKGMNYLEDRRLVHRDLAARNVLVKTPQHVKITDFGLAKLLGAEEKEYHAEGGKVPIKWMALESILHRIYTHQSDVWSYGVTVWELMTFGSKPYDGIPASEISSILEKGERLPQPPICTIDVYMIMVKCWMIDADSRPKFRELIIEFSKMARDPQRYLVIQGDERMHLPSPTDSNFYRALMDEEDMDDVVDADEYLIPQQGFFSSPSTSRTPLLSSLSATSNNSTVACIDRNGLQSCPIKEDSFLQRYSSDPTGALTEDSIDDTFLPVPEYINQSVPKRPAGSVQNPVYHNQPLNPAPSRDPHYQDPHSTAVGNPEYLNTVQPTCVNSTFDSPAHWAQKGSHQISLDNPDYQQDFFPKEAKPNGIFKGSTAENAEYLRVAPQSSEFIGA
Procedure: (§3) Inhibition is indicated as […] [nM] (“−”=not measured). Compounds having an activity designated as “A” provided an IC50≤100 nM; compounds having an activity designated as “B” provided an 100 nM<IC50≤500 nM; compounds having an activity designated as “C” provided an 500 nM<IC50≤1000 nM; compounds having an activity designated as “D” provided an 1000 nM<IC50≤100000 nM; and compounds having an activity designated as “E” provided an IC50>10000 nM.

EGFR T790ML858R = EGFR T790ML858R (Homo sapiens, UniProt P00533, L858R/T790M); assay: EGFR T790ML858R Lance assay; type: biochemical
Chain of EGFR T790ML858R (P00533 25-1210 T790M/L858R): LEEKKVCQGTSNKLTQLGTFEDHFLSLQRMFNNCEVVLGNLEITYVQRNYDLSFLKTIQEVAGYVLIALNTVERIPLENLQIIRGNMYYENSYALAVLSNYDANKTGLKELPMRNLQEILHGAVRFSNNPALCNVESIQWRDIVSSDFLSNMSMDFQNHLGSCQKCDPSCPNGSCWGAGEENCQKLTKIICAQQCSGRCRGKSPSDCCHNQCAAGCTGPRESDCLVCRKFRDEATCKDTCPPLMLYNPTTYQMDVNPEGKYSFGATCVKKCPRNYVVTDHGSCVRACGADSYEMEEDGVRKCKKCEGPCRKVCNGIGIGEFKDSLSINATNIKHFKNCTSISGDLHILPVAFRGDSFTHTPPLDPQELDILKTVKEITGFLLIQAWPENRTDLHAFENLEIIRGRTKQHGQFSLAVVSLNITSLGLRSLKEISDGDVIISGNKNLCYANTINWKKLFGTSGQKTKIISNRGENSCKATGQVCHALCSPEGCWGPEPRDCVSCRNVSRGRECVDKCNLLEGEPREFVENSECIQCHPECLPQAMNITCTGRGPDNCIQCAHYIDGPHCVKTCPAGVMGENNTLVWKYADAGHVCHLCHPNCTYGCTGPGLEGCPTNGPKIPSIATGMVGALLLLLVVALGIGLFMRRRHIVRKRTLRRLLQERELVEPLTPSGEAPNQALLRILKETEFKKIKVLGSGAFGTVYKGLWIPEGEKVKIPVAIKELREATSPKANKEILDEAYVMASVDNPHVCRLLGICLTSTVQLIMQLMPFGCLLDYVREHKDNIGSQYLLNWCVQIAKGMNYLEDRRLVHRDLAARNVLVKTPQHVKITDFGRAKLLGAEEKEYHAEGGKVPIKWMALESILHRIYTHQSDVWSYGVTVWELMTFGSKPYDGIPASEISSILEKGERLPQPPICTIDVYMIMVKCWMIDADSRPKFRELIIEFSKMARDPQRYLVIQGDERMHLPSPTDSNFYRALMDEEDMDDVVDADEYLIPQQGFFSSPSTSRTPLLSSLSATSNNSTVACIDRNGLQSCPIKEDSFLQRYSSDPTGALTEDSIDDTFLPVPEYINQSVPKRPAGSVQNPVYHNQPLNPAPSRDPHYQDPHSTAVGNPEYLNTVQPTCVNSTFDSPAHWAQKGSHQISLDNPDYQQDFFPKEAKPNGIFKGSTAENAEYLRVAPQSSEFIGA
Procedure: as §3

HER2 INS YVMA = molecular target: T1, HER2 INS YVMA (Homo sapiens, UniProt P04626, INS775YVMA); assay: Lance Kinase Activity Assay, HER2 INS YVMA (Her2 Exon 20 INSYVMA Lance); type: biochemical; conditions: biochemical Lance assay
T1 construct: purchased DPF
T1 sequence (P04626 with tags, fused parts or gaps INS775YVMA): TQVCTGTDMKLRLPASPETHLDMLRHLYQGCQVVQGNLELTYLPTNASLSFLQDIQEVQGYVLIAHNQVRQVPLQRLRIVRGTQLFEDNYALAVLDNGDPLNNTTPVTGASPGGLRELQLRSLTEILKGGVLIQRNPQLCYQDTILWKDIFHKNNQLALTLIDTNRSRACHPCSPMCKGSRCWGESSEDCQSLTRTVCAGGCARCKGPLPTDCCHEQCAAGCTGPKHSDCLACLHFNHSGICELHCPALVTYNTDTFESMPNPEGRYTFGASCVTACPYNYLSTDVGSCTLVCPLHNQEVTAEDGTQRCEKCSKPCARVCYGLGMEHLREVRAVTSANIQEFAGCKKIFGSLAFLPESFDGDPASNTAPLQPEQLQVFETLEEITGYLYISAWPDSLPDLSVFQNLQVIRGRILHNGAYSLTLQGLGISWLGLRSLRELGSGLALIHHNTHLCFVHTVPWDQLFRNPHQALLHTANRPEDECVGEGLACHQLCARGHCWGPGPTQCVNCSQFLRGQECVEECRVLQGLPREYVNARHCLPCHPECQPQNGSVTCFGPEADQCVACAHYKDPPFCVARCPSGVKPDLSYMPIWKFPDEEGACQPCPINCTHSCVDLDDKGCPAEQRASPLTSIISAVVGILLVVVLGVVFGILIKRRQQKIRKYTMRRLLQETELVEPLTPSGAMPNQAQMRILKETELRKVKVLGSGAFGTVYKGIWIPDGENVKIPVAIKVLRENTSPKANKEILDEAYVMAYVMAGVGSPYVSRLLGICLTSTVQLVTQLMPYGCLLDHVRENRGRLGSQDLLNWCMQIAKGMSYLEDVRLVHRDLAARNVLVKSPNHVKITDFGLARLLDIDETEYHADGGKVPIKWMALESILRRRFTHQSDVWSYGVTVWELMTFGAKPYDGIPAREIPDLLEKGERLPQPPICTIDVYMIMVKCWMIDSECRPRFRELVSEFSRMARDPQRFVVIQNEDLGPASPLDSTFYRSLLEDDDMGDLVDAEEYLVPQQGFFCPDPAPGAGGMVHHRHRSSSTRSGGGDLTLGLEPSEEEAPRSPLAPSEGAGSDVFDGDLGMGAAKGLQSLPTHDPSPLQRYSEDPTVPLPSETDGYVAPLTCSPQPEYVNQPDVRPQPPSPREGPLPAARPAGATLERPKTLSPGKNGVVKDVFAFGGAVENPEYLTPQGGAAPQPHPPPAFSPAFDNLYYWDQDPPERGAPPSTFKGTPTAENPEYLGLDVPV
Outline: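 IC50 was fitted to sigmoidal curves of TR-FRET signal (665 and 615 nm emission after 340 nm excitation) from an Eu anti-phospho antibody binding the phosphorylated ULight peptide. The ATP-started reaction ran 1 h at RT and was then quenched with 10 mM EDTA plus antibody for a further 1 h. Compounds were tested as 8-point, 3-fold dilutions.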

| SMILES | IC50 (H1975) | Stability in presence of mouse liver microsomes without cofactor NADPH [% remaining after 50 min] [1] | GI50 [2] | GI50 [3] | IC50 (A431) | IC50 (EGFR wt) | IC50 (EGFR T790ML858R) | IC50 (HER2 INS YVMA) |
| --- | --- | --- | --- | --- | --- | --- | --- | --- |
| C=CC(=O)Nc1cc(-c2c(-c3ccc(N4CCN(C(C)=O)CC4)cc3)[nH]c3nccc(OC)c23)ccc1C [Example 74, N-(5-(2-(4-(4-acetylpiperazin-1-yl)phenyl)-4-methoxy-1H-pyrrolo[2,3-b]pyridin-3-yl)-2-methylphenyl)acrylamide] | ≤ 0.1 µM | 90 % remaining after 50 min | 0.5 to 1 µM | 0.1 to 0.5 µM | 0.5 to 1 µM | ≤ 0.1 µM | ≤ 0.1 µM | ≤ 0.1 µM |
| C=CC(=O)Nc1cc(-c2c(-c3ccc(CCN(C)C)cc3)[nH]c3ncc(C(=O)OC(C)C)cc23)ccc1C [Example 161, isopropyl 3-(3-acrylamido-4-methylphenyl)-2-(4-(2-(dimethylamino)ethyl)phenyl)-1H-pyrrolo[2,3-b]pyridine-5-carboxylate] | 0.1 to 0.5 µM | >99 % remaining after 50 min | 0.1 to 0.5 µM | 0.1 to 0.5 µM | 1 to 100 µM | ≤ 0.1 µM | ≤ 0.1 µM | ≤ 0.1 µM |
| C=CC(=O)Nc1cc(-c2c(-c3ccc(N4CCN(CC)CC4)cc3)[nH]c3ncc(C(=O)OC(C)C)cc23)ccc1C [Example 157, isopropyl 3-(3-acrylamido-4-methylphenyl)-2-(4-(4-ethylpiperazin-1-yl)phenyl)-1H-pyrrolo[2,3-b]pyridine-5-carboxylate] | 0.1 to 0.5 µM | >99 % remaining after 50 min | 0.1 to 0.5 µM | 0.1 to 0.5 µM | 1 to 100 µM | ≤ 0.1 µM | ≤ 0.1 µM | ≤ 0.1 µM |
| C=CC(=O)Nc1cc(-c2c(-c3ccc(CN4CCN(C)CC4)cc3)[nH]c3ncc(C(=O)OC(C)C)cc23)ccc1C [Example 160, isopropyl 3-(3-acrylamido-4-methylphenyl)-2-(4-((4-methylpiperazin-1-yl)methyl)phenyl)-1H-pyrrolo[2,3-b]pyridine-5-carboxylate] | 0.1 to 0.5 µM | >99 % remaining after 50 min | 0.1 to 0.5 µM | 0.1 to 0.5 µM | 1 to 100 µM | ≤ 0.1 µM | ≤ 0.1 µM | ≤ 0.1 µM |
| C=CC(=O)N1CCc2ccc(-c3c(-c4ccc(CN5CCN(C)CC5)cc4)[nH]c4nccc(OC)c34)cc21 [Example 113, 1-(6-(4-methoxy-2-(4-((4-methylpiperazin-1-yl)methyl)phenyl)-1H-pyrrolo[2,3-b]pyridin-3-yl)indolin-1-yl)prop-2-en-1-one] | ≤ 0.1 µM | 96 % remaining after 50 min | ≤ 0.1 µM | ≤ 0.1 µM | 0.1 to 0.5 µM | ≤ 0.1 µM | ≤ 0.1 µM | ≤ 0.1 µM |
| C=CC(=O)N1CCOc2ccc(-c3c(-c4ccc(N5CCN(CC)CC5)cc4)[nH]c4nccc(Cl)c34)cc21 [Example 99, 1-(6-(4-chloro-2-(4-(4-ethylpiperazin-1-yl)phenyl)-1H-pyrrolo[2,3-b]pyridin-3-yl)-2H-benzo[b][1,4]oxazin-4(3H)-yl)prop-2-en-1-one] | 0.1 to 0.5 µM | >99 % remaining after 50 min | 0.1 to 0.5 µM | 0.1 to 0.5 µM | 1 to 100 µM | ≤ 0.1 µM | ≤ 0.1 µM | ≤ 0.1 µM |
| C=CC(=O)Nc1cc(-c2c(-c3ccc(N(C)CCN(C)C)cc3)[nH]c3nccc(Cl)c23)ccc1C [Example 43, N-(5-(4-chloro-2-(4-((2-(dimethylamino)ethyl)(methyl)amino)phenyl)-1H-pyrrolo[2,3-b]pyridin-3-yl)-2-methylphenyl)acrylamide] | ≤ 0.1 µM | >99 % remaining after 50 min | ≤ 0.1 µM | ≤ 0.1 µM | 0.1 to 0.5 µM | ≤ 0.1 µM | ≤ 0.1 µM | ≤ 0.1 µM |
| C=CC(=O)Nc1cc(-c2c(-c3ccc(N(C)CCN(C)C)cc3)[nH]c3ncc(C(=O)OC(C)C)cc23)ccc1C [Example 154, isopropyl 3-(3-acrylamido-4-methylphenyl)-2-(4-((2-(dimethylamino)ethyl)(methyl)amino)phenyl)-1H-pyrrolo[2,3-b]pyridine-5-carboxylate 2,2,2-trifluoroacetate] | 0.1 to 0.5 µM | >99 % remaining after 50 min | 0.1 to 0.5 µM | 0.1 to 0.5 µM | 1 to 100 µM | ≤ 0.1 µM | ≤ 0.1 µM | ≤ 0.1 µM |
| C=CC(=O)N1CCc2ccc(-c3c(-c4ccc(N(C)CCN(C)C)cc4)[nH]c4nccc(Cl)c34)cc21 [Example 65, 1-(6-(4-chloro-2-(4-((2-(dimethylamino)ethyl)(methyl)amino)phenyl)-1H-pyrrolo[2,3-b]pyridin-3-yl)indolin-1-yl)prop-2-en-1-one] | ≤ 0.1 µM | >99 % remaining after 50 min | 0.1 to 0.5 µM | 0.5 to 1 µM | 0.5 to 1 µM | ≤ 0.1 µM | ≤ 0.1 µM | ≤ 0.1 µM |
| C=CC(=O)N1CCc2ccc(-c3c(-c4ccc(CN5CCOCC5)cc4)[nH]c4nccc(Cl)c34)cc21 [Example 68, 1-(6-(4-chloro-2-(4-(morpholinomethyl)phenyl)-1H-pyrrolo[2,3-b]pyridin-3-yl)indolin-1-yl)prop-2-en-1-one] | 0.1 to 0.5 µM | >99 % remaining after 50 min | 0.5 to 1 µM | 1 to 10 µM | 1 to 100 µM | ≤ 0.1 µM | ≤ 0.1 µM | ≤ 0.1 µM |
| C=CC(=O)Nc1cc(-c2c(-c3ccc(N(C)CCN(C)C)cc3)[nH]c3ncc(C(=O)OC(C)C)cc23)cc(F)c1C [Example 172, isopropyl 3-(3-acrylamido-5-fluoro-4-methylphenyl)-2-(4-((2-(dimethylamino)ethyl)(methyl)amino)phenyl)-1H-pyrrolo[2,3-b]pyridine-5-carboxylate] | 0.1 to 0.5 µM | >99 % remaining after 50 min | 0.1 to 0.5 µM | 0.1 to 0.5 µM | 1 to 100 µM | ≤ 0.1 µM | ≤ 0.1 µM | ≤ 0.1 µM |
| C=CC(=O)N1CCc2ccc(-c3c(-c4cccc(OCCN5CCCC5)c4)[nH]c4nccc(OCC)c34)cc21 [Example 109, 1-(6-(4-ethoxy-2-(3-(2-(pyrrolidin-1-yl)ethoxy)phenyl)-1H-pyrrolo[2,3-b]pyridin-3-yl)indolin-1-yl)prop-2-en-1-one] | ≤ 0.1 µM | 77 % remaining after 50 min | 0.1 to 0.5 µM | 0.1 to 0.5 µM | 0.5 to 1 µM | ≤ 0.1 µM | ≤ 0.1 µM | ≤ 0.1 µM |
| C=CC(=O)Nc1cc(-c2c(-c3ccc(N4CCN(C)CC4)c(F)c3)[nH]c3nccc(Cl)c23)ccc1C [Example 42, N-(5-(4-chloro-2-(3-fluoro-4-(4-methylpiperazin-1-yl)phenyl)-1H-pyrrolo[2,3-b]pyridin-3-yl)-2-methylphenyl)acrylamide] | ≤ 0.1 µM | >99 % remaining after 50 min | 0.1 to 0.5 µM | 0.1 to 0.5 µM | 0.1 to 0.5 µM | ≤ 0.1 µM | ≤ 0.1 µM | ≤ 0.1 µM |
